Laboratory results from patent publication US20240383873A1, “PESTICIDALLY ACTIVE CYCLIC AMINE COMPOUNDS” (SYNGENTA CROP PROTECTION AG, priority 2021, published 2024).

Tested on: Tetranychus Urticae (Two-Spotted Spider Mite)
Assay: Tetranychus urticae (two-spotted spider mite): feeding/contact activity
Assay type: in vivo
Settings: foliar, 192 h, application rate of 200 ppm, bean leaf discs sprayed, mixed population (mobile stages), 8 days after infestation
Procedure: Example B1: Tetranychus Urticae (Two-Spotted Spider Mite): Feeding/Contact Activity
Bean leaf discs on agar in 24-well microtiter plates were sprayed with aqueous test solutions prepared from 10'000 ppm DMSO stock solutions. After drying the leaf discs were infested with a mite population of mixed ages. The samples were assessed for mortality on mixed population (mobile stages) 8 days after infestation.

SMILES | mortality at 200 ppm
CN(C)C(=O)CC1CCN(C(=O)c2cc(C#N)c(OCc3cc(C(F)(F)F)ccc3F)nc2C(F)(F)F)CC1 [Compound P1.37, 2-[1-[5-Cyano-6-[[2-fluoro-5-(trifluoromethyl)phenyl]methoxy]-2-(trifluoromethyl)pyridine-3-carbonyl]-4-piperidyl]-N,N-dimethyl-acetamide] | ≥ 80%
CN(C)C(=O)CN1CCN(C(=O)c2cc(C#N)c(OCc3cc(C(F)(F)F)ccc3F)nc2C(F)(F)F)CC1 [Compound P2.6, 2-[4-[5-Cyano-6-[[2-fluoro-5-(trifluoromethyl)phenyl]methoxy]-2-(trifluoromethyl)pyridine-3-carbonyl]piperazin-1-yl]-N,N-dimethyl-acetamide] | ≥ 80%
CNS(=O)(=O)C1CCN(C(=O)c2cc(C#N)c(OCc3cc(C(F)(F)F)ccc3F)nc2C(F)(F)F)CC1 [Compound P1.1, 1-[5-cyano-6-[[2-fluoro-5-(trifluoromethyl)phenyl]methoxy]-2-(trifluoromethyl)pyridine-3-carbonyl]-N-methyl-piperidine-4-sulfonamide] | ≥ 80%
CN(C)S(=O)(=O)C1CCN(C(=O)c2cc(C#N)c(OCc3ccc4c(c3)OC(F)(F)O4)nc2C(F)(F)F)CC1 [Compound P1.24, 1-[5-Cyano-6-[(2,2-difluoro-1,3-benzodioxol-5-yl)methoxy]-2-(trifluoromethyl)pyridine-3-carbonyl]-N,N-dimethyl-piperidine-4-sulfonamide] | ≥ 80%
